Each structure is given as a SMILES string.

Broadly, the IC50 is the concentration that inhibits the measured activity by half.

Assay [1] is described as follows: Inhibition of Bacillus thermoproteolyticus thermolysin using Mca-Arg-Pro-Pro-Gly-Phe-Ser-Ala-Phe-Lys-(Dnp)-OH as substrate after 1 hr by fluorescence assay in presence of Brij-35.
Assay [2] concerns the target T1, Elastase (Pseudomonas aeruginosa (strain ATCC 15692 / PAO1 / 1C / PRS 101 / LMG12228), UniProt P14756). Description: Inhibition of Pseudomonas aeruginosa pseudolysin using Mca-Arg-Pro-Pro-Gly-Phe-Ser-Ala-Phe-Lys-(Dnp)-OH as substrate after 1 hr by fluorescence assay in presence of Brij-35.
Assay [3] has as its target T1, Elastase. Kind of assay: Inhibition of Pseudomonas aeruginosa pseudolysin using Abz-Ala-Gly-Leu-Ala-p-nitrobenzylamide as substrate after 15 mins.

T1 sequence (P14756 whole entry): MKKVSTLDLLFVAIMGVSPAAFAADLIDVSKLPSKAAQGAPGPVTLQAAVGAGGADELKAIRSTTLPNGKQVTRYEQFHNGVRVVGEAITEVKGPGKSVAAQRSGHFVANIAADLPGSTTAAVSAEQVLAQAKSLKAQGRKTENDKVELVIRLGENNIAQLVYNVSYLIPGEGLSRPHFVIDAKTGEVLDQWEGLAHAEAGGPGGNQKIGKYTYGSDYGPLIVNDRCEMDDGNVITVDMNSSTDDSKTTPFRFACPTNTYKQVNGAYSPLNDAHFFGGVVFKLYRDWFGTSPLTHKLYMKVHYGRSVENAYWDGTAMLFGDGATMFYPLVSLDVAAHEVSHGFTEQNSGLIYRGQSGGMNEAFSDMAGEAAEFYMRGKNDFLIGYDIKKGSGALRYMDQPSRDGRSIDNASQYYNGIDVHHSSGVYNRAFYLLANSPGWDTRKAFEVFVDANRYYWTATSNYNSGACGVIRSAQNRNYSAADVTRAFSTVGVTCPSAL

`NS(=O)(=O)c1ccc(CCNC(=O)CN(CC(=O)NO)S(=O)(=O)c2ccc(Oc3ccccc3)cc2)cc1`: the IC50 in assay [1] is 160 µM; on Elastase [2], 276 µM; against Elastase [3], 16 µM.

`O=C(O)CN(CC(=O)NO)Cc1ccc([N+](=O)[O-])cc1`: the IC50 in assay [1] was found to be 755 µM; at Elastase [3], 20 µM.

Consider `CC(C)[C@H](C(=O)NO)N(CC(=O)O)S(=O)(=O)c1ccc(Oc2ccccc2)cc1`, for which the results for the IC50 (in assay [1]; at Elastase [2]; at Elastase [3]) were over 1000 µM, 336 µM and 82 µM, respectively.

As for `COc1ccc(S(=O)(=O)N(CC(=O)O)CC(=O)NCCc2ccc(S(N)(=O)=O)cc2)cc1`, the IC50 in assay [1] is 637 µM; on Elastase [3] it was over 282 µM.

As for `COc1ccc(S(=O)(=O)N(CC(=O)O)CC(=O)NO)cc1`, the concentration for half-maximal inhibition (IC50) in assay [1] worked out at 270 µM; on Elastase [2] it was 153 µM; at Elastase [3] it was 169 µM.

Consider `O=C(O)CN(CC(=O)NO)S(=O)(=O)c1ccc(Oc2ccccc2)cc1`, for which the IC50 is 114 µM in assay [1], 46 µM at Elastase [2] and over 186 µM against Elastase [3].

In the case of `NS(=O)(=O)c1ccc(CCNC(=O)CN(CC(=O)NO)S(=O)(=O)c2ccc(-c3ccccc3)cc2)cc1`, the IC50 in assay [1] came to 67 µM; at Elastase [3] it was 31 µM.

In the case of `O=C(O)CN(CC(=O)NO)Cc1ccc(Oc2ccccc2)cc1`, the values for the IC50 (in assay [1]; on Elastase [2]; against Elastase [3]) were 524 µM, 430 µM and over 200 µM, respectively.

Turning to `O=C(O)CN(CC(=O)NO)S(=O)(=O)c1ccc(-c2ccccc2)cc1`, the results for the concentration for half-maximal inhibition (IC50) (in assay [1]; at Elastase [2]; against Elastase [3]) were 440 µM, 241 µM and over 150 µM, respectively.

In the case of `O=C(O)CN(CC(=O)NO)NCCCN1CCN(c2ccccc2)CC1`, the 50% inhibitory concentration (IC50) in assay [1] is over 1000 µM; at Elastase [3], over 330 µM.

In the case of `O=C(O)CN(CC(=O)NO)Cc1ccc(-c2ccccc2)cc1`, the IC50 was over 1000 µM in assay [1] and over 121 µM against Elastase [3].

As to `NS(=O)(=O)c1ccc(CCNC(=O)CN(CC(=O)NO)Cc2ccccc2)cc1`, the values for the IC50 (in assay [1]; on Elastase [3]) were 12 µM and 0.4 µM, respectively.

For the compound `COc1ccc(S(=O)(=O)N(CC(=O)NO)CC(=O)NCCc2ccc(S(N)(=O)=O)cc2)cc1`, the IC50 in assay [1] is 164 µM; at Elastase [2], 33 µM; on Elastase [3], 15 µM.

As for `O=C(CN(CC(=O)NCCCN1CCN(c2ccccc2)CC1)Cc1ccccc1)NO`, the results for the IC50 (in assay [1]; at Elastase [2]; against Elastase [3]) were 8 µM, 2.8 µM and 6.7 µM, respectively.

The record behind these values is ChEMBL document CHEMBL3351501, “Inhibition of pseudolysin and thermolysin by hydroxamate-based MMP inhibitors” (Eur J Med Chem, 2015).
